The values below come from article PMC10609081, “In Vivo Trafficking of the Anticancer Drug Tris(8-Quinolinolato) Gallium (III) (KP46) by Gallium-68/67 PET/SPECT Imaging” (Molecules, 2023).

For this assay, the system named is A375 (human melanoma) cells. The assay can be described thus: Cellular uptake of radiogallium in cultured A375 cells. Format: cell-based. The note with it: 1 h. The procedure:
One million A375 (human melanoma) cells were suspended in 0.5 mL of Dulbecco’s Modified Eagle’s Medium (500 mL DMEM, low-glucose medium with 50 mL 10% FBS, 5 mL of L-glutamine, and 5 mL of penicillin and streptomycin) in 1.5 mL Eppendorf tubes. An amount of 10 µL of no-carrier-added [^68Ga]KP46 or [^68Ga]gallium acetate was added to the cell suspensions (giving a ^68Ga concentration of ca. 20 pM) and to similar tubes containing medium but no cells (to check and compensate for adhesion of radioactivity to tubes). Samples were incubated for 60 min at 37 °C under 5% CO2 and then centrifuged (Sci Spin Mini) for three minutes at 1500 RPM. The supernatants were transferred to fresh Eppendorf tubes. The pellets were washed twice with 0.5 mL PBS, following the same centrifugation protocol, and washes were added to the supernatant tubes. Supernatants and cell pellets were measured using a gamma counter to determine the average activity in cell pellets as a % of the total activity for each sample. The intracellular-to-extracellular ^68Ga concentration ratio was also estimated by correcting for the different volume of supernatant and cell pellet using an estimated spherical cell diameter of 17.5 μm, which leads to an estimated volume of the cell pellet (10^6 cells) of 2.8 μL.

Molecules are shown by their SMILES.

For `[68Ga+3].[O-]c1cccc2cccnc12.[O-]c1cccc2cccnc12.[O-]c1cccc2cccnc12` [[^68Ga]KP46], the “cellular uptake (% radioactivity added, corrected for nonspecific binding to vessel)” value (DMEM containing FBS, n = 3) was 2.55% ± 1%. For the same compound, the intracellular-to-extracellular concentration ratio (corrected data, estimated cell pellet volume 2.8 μL) is 14 ± 6.
